{"source": "patent US20040022733A1", "about": "“Conjugated lysine copolymers” (priority 2002, published 2004)", "test_system": "rat mammary adenocarcinoma cells (ATCC 13762, Mat B cells)", "test": "MR imaging on a rat tumor model (tumor enhancement)", "type": "in vivo", "description": "Imaging was done on a rat tumor model. Specifically, rat mammary adenocarcinoma cells (ATCC 13762, Mat B cells) were implanted in Fisher 344 female rats ([…] in 0.5 ml phosphate buffered saline). After 7-9 days, tumors were about 10 mm in diameter and the imaging was done at that point. Imaging was performed using a GE CSI scanner at 2T with a 33 cm bore. A birdcage quadrature coil was used for transmission and receiving. T1 weighted images were obtained (TR 250 ms, TE 18 MS, NEX 16). Rats were imaged prior to injection of contrast agent. […] The rats were then imaged immediately after injection and then at 24 hours."}
{"smiles": "O=C([O-])CN(CCN(CC(=O)[O-])CC(=O)O)CCN(CC(=O)[O-])CC(=O)O.[Gd+3]", "note": "[Gd-DTPA]", "values": [{"measurement": "tumor enhancement", "setting": "rat tumor model, standard dose of 0.1 mmol Gd/kG", "result": 70, "unit": "%"}, {"measurement": "wash out of tumors", "setting": "rat, in vivo", "result": "rapidly wash out of tumors"}]}
